The target in assay [1] is T1, HSAT, MetX, Rv3341, (His)6-MetX, (His)6-Rv3341 (Mycobacterium tuberculosis, UniProt P9WJY9).
T1 construct: gene metXA
Put plainly: DTNB CoA release endpoint assay. It counts as biochemical.

Assay [2] has as its target T2, S. aureus HSAT, HSAT homolog from S. aureus (Staphylococcus aureus, UniProt A0A447ZIT7).
T2 construct: gene metX; cloned in pET28b (His tag implied), expressed in E. coli BL-21 (DE3, plysS), Ni-NTA and gel filtration; 4QLO used for docking
T2 sequence (A0A447ZIT7 1-322): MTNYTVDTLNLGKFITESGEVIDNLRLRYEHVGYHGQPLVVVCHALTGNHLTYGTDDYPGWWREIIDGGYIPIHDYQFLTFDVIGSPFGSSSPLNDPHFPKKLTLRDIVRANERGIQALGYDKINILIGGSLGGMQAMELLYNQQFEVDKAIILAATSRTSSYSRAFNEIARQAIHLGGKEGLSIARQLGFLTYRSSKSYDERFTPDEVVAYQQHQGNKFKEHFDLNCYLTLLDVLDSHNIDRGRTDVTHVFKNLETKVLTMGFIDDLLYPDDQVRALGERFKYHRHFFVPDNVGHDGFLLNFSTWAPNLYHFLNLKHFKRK
Kind of assay: DTNB CoA release endpoint assay. Type of assay: biochemical. To be noted: 1.0 mM L-homoserine, 1.0 mM acetyl-CoA, 5.0 mM MgCl2, Tris-Cl pH 7.4, 37 °C.

T1 sequence (P9WJY9 whole entry, looked up): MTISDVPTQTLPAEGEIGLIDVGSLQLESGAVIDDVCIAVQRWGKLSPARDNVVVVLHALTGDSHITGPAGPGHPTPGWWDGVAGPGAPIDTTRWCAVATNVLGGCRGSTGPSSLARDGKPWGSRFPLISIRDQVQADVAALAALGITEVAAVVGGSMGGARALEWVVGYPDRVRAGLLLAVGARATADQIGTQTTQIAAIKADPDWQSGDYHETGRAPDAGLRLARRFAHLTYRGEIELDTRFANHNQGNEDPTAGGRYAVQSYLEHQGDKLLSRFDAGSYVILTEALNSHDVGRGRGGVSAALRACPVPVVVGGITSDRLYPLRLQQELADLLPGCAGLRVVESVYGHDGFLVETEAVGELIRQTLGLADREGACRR

One may read the inhibition as the share of the control response that was lost under treatment. For the molecule `CCOC(=O)/C(C#N)=C1\SS/C(=C(/C#N)C(=O)OCC)S1` [compound 2, NSC98363], the inhibition at 100 µM in assay [1] was above 50%.

As usually defined, the % inhibition is the drop in the measured response relative to a control, in per cent. A lower % inhibition goes with a weak effect. As for `C/C(=N\NC(=S)N(C)C)c1ccccn1.[Cu][Br]` [compound 4, NSC635448], the “% inhibition at 100 μM” value is above 60% in assay [2] and above 50% in assay [1] (1.0 mM L-homoserine, 1.0 mM acetyl-CoA, 5.0 mM MgCl2, Tris-Cl pH 7.4, 37 °C).

`COc1cc(-c2ccc(Nc3ccccc3C(=O)O)c(OC)c2)ccc1Nc1ccccc1C(=O)O` [compound 6, NSC73735] displayed an inhibition at 100 µM in assay [1] above 50%.

Turning to `Cc1ccc(S(=O)(=O)SC/C=C/CSS(=O)(=O)c2ccc(C)cc2)cc1` [compound 5, NSC624158], the “% inhibition at 100 μM” value in assay [2] was above 60%. Further, in assay [1], the inhibition at 100 µM was above 50%.

Consider `Oc1cc(-n2cccn2)c(O)cc1-n1cccn1` [compound 8, NSC645987], for which, in assay [1], the inhibition at 100 µM is above 50%.

The molecule `O=Nc1c(-c2cccc([N+](=O)[O-])c2)nc2ncccn12` [compound 7, NSC369066] returned an inhibition at 100 µM in assay [1] above 50%.

`Oc1cc(CNC2CCCCC2)c(O)cc1CNC1CCCCC1` [compound 3, NSC48443]: the “% inhibition at 100 μM” value in assay [2] is on record as above 60%. The molecule further showed an inhibition at 100 µM in assay [1] above 50%.

These data come from article PMC9376091, “Identification of small molecules targeting homoserine acetyl transferase from Mycobacterium tuberculosis and Staphylococcus aureus” (Scientific Reports, 2022).
